The experiment has as its system E. coli. As to the kind of experiment: CLSI overnight reference method MIC of antimicrobials against E. coli strains. Format: cell-based. The conditions noted are these: for MIC (CLSI Ref): unit assumed.
The mark [1] stands for this setting: E. coli strain Clinical Sample 1.
[2] abbreviates: E. coli strain Clinical Sample 2.
The mark [3] stands for this setting: E. coli strain Clinical Sample 4.
The mark [4] stands for this setting: E. coli strain Clinical Sample 5.
Where [5] appears, read: E. coli strain Clinical Sample 6.
[6] abbreviates: E. coli strain Clinical Sample 7.
The mark [7] stands for this setting: E. coli strain Clinical Sample 8.
The mark [8] stands for this setting: E. coli strain Clinical Sample 9.
The mark [9] stands for this setting: E. coli strain Clinical Sample 10.
The mark [10] stands for this setting: E. coli strain Clinical Sample 11.
Where [11] appears, read: E. coli strain Clinical Sample 12.
Setting [12] is: E. coli strain Clinical Sample 13.

Bounds are passed on as bounds.

This is an account of results in US20200325518A1, “Systems and Methods for Metabolic Assessment Utilizing 1-Methoxy-PMS Field” (priority 2019, published 2020).

Regarding `C[C@H]1[C@H](NC(=O)/C(=N\OC(C)(C)C(=O)O)c2csc(N)n2)C(=O)N1S(=O)(=O)O` [ATM, Aztreonam], the MIC (CLSI Ref) is, setting by setting: (E. coli strain BEI 4.097) less than 0.25 µg/mL; (E. coli strain CDC Carba36) 8 µg/mL; under setting [1], less than 0.25 µg/mL; under setting [2], 0.5 µg/mL; under setting [3], less than 0.25 µg/mL; under setting [4], less than 0.25 µg/mL. The MIC (CLSI Ref) under setting [5] is less than 0.25 µg/mL; the MIC (CLSI Ref) under setting [6] is less than 0.25 µg/mL; the MIC (CLSI Ref) under setting [7] stood at 64 µg/mL; the MIC (CLSI Ref) under setting [8] stood at 32 µg/mL; the MIC (CLSI Ref) under setting [9] was less than 0.25 µg/mL; the MIC (CLSI Ref) under setting [10] was less than 0.25 µg/mL. For the same compound, the MIC (CLSI Ref) by setting is: under setting [11], less than 0.25 µg/mL; under setting [12], less than 0.25 µg/mL.
With `C[C@@H](O)[C@H]1C(=O)N2C(C(=O)O)=C(S[C@@H]3CN[C@H](C(=O)N(C)C)C3)[C@H](C)[C@H]12` [MEM, Meropenem], the MIC (CLSI Ref) by setting is: (E. coli strain BEI 4.097) less than 0.06 µg/mL; (E. coli strain CDC Carba36) less than 0.06 µg/mL; under setting [1], less than 0.06 µg/mL; under setting [2], less than 0.06 µg/mL; under setting [3], less than 0.06 µg/mL; under setting [4], less than 0.06 µg/mL. Further, the MIC (CLSI Ref) under setting [5] is less than 0.06 µg/mL; the MIC (CLSI Ref) under setting [6] is less than 0.06 µg/mL; the MIC (CLSI Ref) under setting [7] is less than 0.06 µg/mL; the MIC (CLSI Ref) under setting [8] is less than 0.06 µg/mL; the MIC (CLSI Ref) under setting [9] is less than 0.06 µg/mL; the MIC (CLSI Ref) under setting [10] is less than 0.06 µg/mL. For the same compound, the MIC (CLSI Ref) runs as follows: under setting [11], less than 0.06 µg/mL; under setting [12], less than 0.06 µg/mL.
Turning to `C[C@@H](O)[C@H]1C(=O)N2C(C(=O)O)=C(S[C@@H]3CN[C@H](C(=O)Nc4cccc(C(=O)O)c4)C3)[C@H](C)[C@H]12` [ERT, Ertapenem], the MIC (CLSI Ref) is, setting by setting: (E. coli strain BEI 4.097) 0.008 µg/mL; (E. coli strain CDC Carba36) 0.12 µg/mL; under setting [1], 0.008 µg/mL; under setting [2], 0.015 µg/mL; under setting [3], 0.008 µg/mL; under setting [4], 0.008 µg/mL. The MIC (CLSI Ref) was 0.008 µg/mL under setting [5]; 0.008 µg/mL under setting [6]; 0.25 µg/mL under setting [7]; 0.12 µg/mL under setting [8]; 0.008 µg/mL under setting [9]; 0.008 µg/mL under setting [10]. Moreover, the MIC (CLSI Ref) runs as follows: under setting [11], 0.008 µg/mL; under setting [12], 0.016 µg/mL.
In the case of Trimethoprim-Sulfamethoxazole [SXT], the MIC (CLSI Ref) was less than 0.5 µg/mL (E. coli strain BEI 4.097); less than 0.5 µg/mL (E. coli strain CDC Carba36); less than 0.5 µg/mL under setting [1]; 4 µg/mL under setting [2]; more than 32 µg/mL under setting [3]; more than 32 µg/mL under setting [4]. In addition, the MIC (CLSI Ref) reads like this: under setting [5], 2 µg/mL; under setting [6], more than 32 µg/mL; under setting [7], less than 0.5 µg/mL; under setting [8], more than 32 µg/mL; under setting [9], more than 32 µg/mL; under setting [10], less than 0.5 µg/mL. Also, the MIC (CLSI Ref) is, setting by setting: under setting [11], less than 0.5 µg/mL; under setting [12], less than 0.5 µg/mL. In addition, the “CLSI breakpoint interpretation” value under setting [2] is listed as “R”.
As to Penicillin, the MIC (CLSI Ref) is, setting by setting: (E. coli strain BEI 4.097) 16 µg/mL; (E. coli strain CDC Carba36) more than 16 µg/mL; under setting [1], more than 16 µg/mL; under setting [2], more than 16 µg/mL; under setting [3], more than 16 µg/mL; under setting [4], more than 16 µg/mL. For the same compound, the MIC (CLSI Ref) reads like this: under setting [5], 16 µg/mL; under setting [6], more than 16 µg/mL; under setting [7], more than 16 µg/mL; under setting [8], more than 16 µg/mL; under setting [9], more than 16 µg/mL; under setting [10], more than 16 µg/mL. Moreover, the MIC (CLSI Ref) reads like this: under setting [11], more than 16 µg/mL; under setting [12], 16 µg/mL.
Gentamycin: the MIC (CLSI Ref) is, setting by setting: (E. coli strain BEI 4.097) 0.5 µg/mL; (E. coli strain CDC Carba36) 2 µg/mL; under setting [1], 0.5 µg/mL; under setting [2], 4 µg/mL; under setting [3], 0.5 µg/mL; under setting [4], 2 µg/mL. The MIC (CLSI Ref) under setting [5] came to 0.5 µg/mL; the MIC (CLSI Ref) under setting [6] is 0.5 µg/mL; the MIC (CLSI Ref) under setting [7] was 1 µg/mL; the MIC (CLSI Ref) under setting [8] was found to be 1 µg/mL; the MIC (CLSI Ref) under setting [9] was more than 16 µg/mL; the MIC (CLSI Ref) under setting [10] was 2 µg/mL. Moreover, the MIC (CLSI Ref) came out at 1 µg/mL under setting [11] and 1 µg/mL under setting [12].
